From US20110053849A1 (priority 2006, published 2011)

Legend:
TNF-α = experiment: ELISA of LPS-induced TNF-α production in human monocytes; type: cell-based; conditions: 0.1 μg/ml E. coli LPS 3 hours, then peptide 16 hours, FIG. 8A
Experimental: ELISA. Human monocytes (1×10^6) were stimulated with 0.1 μg/ml E. coli LPS for 3 hrs, washed with PBS, then further treated with peptides by Chariot kit (Active Motif, Carlsbad, Calif.). Cells were then incubated overnight in RPMI 1640 medium supplemented with 10% FBS at 37° C., in a humidified atmosphere containing 5% CO2. Culture supernatants were harvested and centrifuged at 1,500×g to remove cell debris, then concentrations of human TNF-α in the supernatant of each treated or untreated control cell condition were measured by ELISA (Abraxis, Warminster, Pa.). The ELISA immunoreactivity was quantified using a VerSaDoc Imaging System (BIO-RAD) and graphed.
To further examine the effects of pep12 on LPS-induced LITAF gene expression and LITAF-dependent TNF-α production, analyses of Western blot and ELISA were performed. Human monocytes (1×10^6) were stimulated with 0.1 μg/ml E. coli LPS for 3 hours and washed with PBS prior to treatment with peptides for 16 hours with either pep12 (#5) or pepSC as control (#4) using a Chariot kit (Active motif, Carlsbad, Calif.) or transfected with no DNA (#1) or with pGLP700 DNA (#2) as negative controls or with p53-1 DNA (#3) as a positive control. […] The supernatants from cell cultures were measured by ELISA (Abraxis, Warminster, Pa.) and the extracts were detected by Western blot with antibodies against LITAF and actin (as a control).

LITAF promoter = experiment: Luciferase reporter assay of LITAF promoter activity in p53-null H1299 cells; type: cell-based, human; conditions: for Luciferase activity with peptide alone: peptide alone without pGLP700, FIG. 7 #5 and #6
Experimental: Luciferase assay. […] Cells were then incubated overnight in appropriate media (DMEM or RPMI 1640)+10% FBS at 37° C., in a humidified atmosphere containing 5% CO2. The β-galactosidase gene was included in all transfections. Cells were harvested and the luciferase activity of each lysate was measured (Turner Designs luminometer model TD-20/20) using a commercial kit (luciferase reporter assay system, Promega) according to the protocol provided by the manufacturer. Finally, the data were normalized to β-galactosidase expression.
The promoter activity of pGLP700 alone was assigned the maximal value of 100%. […] Deletions, indicated by ̂, correspond to aa 101-167 in construct A12, aa 167-234 in B1, aa 235-300 in C6 and aa 156-178 in D10. Construct p53LFB12 contained only 7 aa (KQSQHMT [SEQ ID NO: 1]) from the region (aa 164-170).
The proteins extracted from each transfection of construct plus pGLP700 compared to the transfection of pGLP700 alone in p53-null H1299 cells were measured by luciferase assay. Triplicate assays were performed. […] Construct C6, containing aa 167 and its flanking sequences, reduced LITAF promoter activity to 22% of control even though it lacked aa 235-300.
Furthermore, short peptides (pep12) that contain 7 residues (aa 164-170) (KQSQHMT [SEQ ID NO: 1]) corresponding to p53LFB12 and another peptide (pepSC) with reverse sequence of pep12 as a negative control, were synthesized and analyzed using the luciferase assay. Cultures of p53-null H1299 cells (5×10^6) were transfected with pGLP700 (#2-4, #7-12), pGLP550 (#13 and 14) or pGLP500 (#15 and 16) plus p53LFB12 (#4) or plus 12REV (#3) as control using Lipofactamine 2000 (Invitrogen) for 3 hours, washed with PBS and further transfected with peptide, 10 μg/ml (#10, 12, 14 and 16), then cells were incubated in appropriate medium at 37° C. overnight. Luciferase activities of the lysates from each culture of treated cells were measured. The extracts from untreated (#1), pepSC alone (#5), pep12 alone (#6), pGLP700 alone (#2 and 11, pGLP550 alone (#13) or pGLP500 alone (#15) were used as controls. Triplicate assays were performed.

human cytokines = experiment: Bioplex human monocyte cytokine assay; type: cell-based; conditions: E. coli LPS + pep12 (10 µg or 100 υg)
Experimental: This assay was performed to determine the effectiveness of the peptide of the present invention [pep12: SEQ ID NO.: 1] to inhibit various human cytokines. The assay performed was a human monocyte assay well known to those practiced in the art. The kit used here (trade name Bioplex) was supplied by Bio-Rad (Hercules, Calif.). Other commercially available assays are known and suitable for use in the assay described here.
Bar (1) is the carrier solution alone (chariot alone); bar (2) is E. coli LPS stimulant; bar (3) is E. coli LPS+pepSC (scramble peptide); bar (4) is E. coli LPS+pep12 (10 υg); bar (5) is E. coli LPS+pep12 (100 υg). The cytokines tested include Human (Hu) IL-2, Hu Il-5, Hu Il-7, Hu Il-12 Hu Eotaxin, Hu Il-13, Hu-PDGF-β, Hu IL-1β, Hu-15, Hu IFN-γ, Hu IP-10, Hu IL-6, Hu RANTES, Hu TNF-α, Hu Il-1ra and Hu VEGF.

LITAF = experiment: Western blot of LPS-induced LITAF gene expression in human monocytes; type: cell-based; conditions: 0.1 μg/ml E. coli LPS 3 hours, then peptide 16 hours, FIG. 8B lane 5
Experimental: Western blot analysis. […] Cells were then incubated overnight in RPMI 1640 medium with 10% FBS at 37° C., in a humidified atmosphere containing 5% CO2. The proteins from the treated cells were extracted with lysis buffer (Promega) plus a cocktail of […] (Sigma) following the manufacturer's instructions and suspended in SDS sample buffer, heated at 95° C. for 5 min, then applied to SDS-polyacrylamide gels and detected by Western blotting.
To further examine the effects of pep12 on LPS-induced LITAF gene expression and LITAF-dependent TNF-α production, analyses of Western blot and ELISA were performed. Human monocytes (1×10^6) were stimulated with 0.1 μg/ml E. coli LPS for 3 hours and washed with PBS prior to treatment with peptides for 16 hours with either pep12 (#5) or pepSC as control (#4) using a Chariot kit (Active motif, Carlsbad, Calif.) or transfected with no DNA (#1) or with pGLP700 DNA (#2) as negative controls or with p53-1 DNA (#3) as a positive control. The cells were incubated in appropriate medium at 37° C., 5% CO2 overnight. The supernatants from cell cultures were measured by ELISA (Abraxis, Warminster, Pa.) and the extracts were detected by Western blot with antibodies against LITAF and actin (as a control).

[1] = peptide 10 μg/ml plus pGLP700, FIG. 7 #7 and #10

Substance | LPS-induced TNF-α production, % of control (TNF-α) | LITAF promoter activity (LITAF promoter; pep12 10 μg/ml plus pGLP500, FIG. 7 #16 vs #15) | LITAF promoter activity, % of control (LITAF promoter; pep12 10 μg/ml plus pGLP550, FIG. 7 #14 vs #13) [%] | LITAF promoter activity, % of control (LITAF promoter; pep12 10 μg/ml plus pGLP700, FIG. 7 #12 vs #11) [%] | LITAF promoter activity (untreated pGLP700 #2 = 100%) (LITAF promoter; peptide 0.1 μg/ml plus pGLP700, FIG. 7 #8) [%] | LITAF promoter activity (untreated pGLP700 #2 = 100%) (LITAF promoter; [1]) [%] | Luciferase activity with peptide alone (LITAF promoter) [%] | LITAF promoter activity (untreated pGLP700 #2 = 100%) (LITAF promoter; peptide plus pGLP700, FIG. 7 #9, concentration not clearly printed) [%] | Concentration of active cytokine: Hu IL-13 (human cytokines) | Concentration of active cytokine: Hu PDGF-β (human cytokines) | Concentration of active cytokine: Hu RANTES (human cytokines) | Concentration of active cytokine: IL-2, IL-5, IL-7, IL-12, Eotaxin, IL-1β, IL-15, IFN-γ, IP-10, IL-6, TNF-α, IL-1ra, VEGF (human cytokines; FIGS. 9A-9C) | LPS-induced LITAF gene expression (LITAF)
KQSQHMT [pep12] | ≤ 70% | did not affect LITAF promoter activity | 23 | 15 | 66 | 15 | 2.3 | 40 | only minor reductions | only minor reductions | only minor reductions | significant reduction | inhibition of LPS-induced LITAF gene expression
SKMQQTH [pepSC, reference compound] | could not affect LPS-induced TNF-α secretion |  |  |  |  | 95 | 1.5 |  |  |  |  |  | 
